Laboratory results taken from US6337317B1, “Antimicrobial peptides and methods of use thereof” (priority 2000, dated 2002).
Where a SMILES comes first, the peptide text is derived from it.

Test system: E. coli 0111:B4 LPS induced production of IL-6 in RAW macrophages
Experiment: Reduction of LPS-induced IL-6 in RAW 264.7 macrophages (ELISA)
Format: cell-based, murine
Details: peptide 20 μg/ml; LPS 100 ng/ml; RAW 264.7; 6 hours
Experimental: The ability of invention peptides to reduce LPS-induced tumor necrosis factor (TNF) production was tested in an in vitro assay. The murine macrophage cell line RAW 264.7 was obtained from American Type Culture Collection (Manassas, Va.) and grown in DMEM medium supplemented with 10% fetal calf serum. The cells were plated at a density of 10^6 cells/well in 24 well plates, incubated overnight, then washed with fresh medium. E. coli 0111 :B4 (100 ng/ml) was added at time 0 to RAW macrophages. Invention peptides […]/m were added at time 0, 30 and 60 minutes and the cells were stimulated for 6 hours. Levels of TNF and interleukin-6 (IL-6) were measured after 6 hours.

Q: `CC(C)[C@@H]1NC(=O)[C@H](CCCNC(=N)N)NC(=O)[C@H](Cc2ccccc2)NC(=O)[C@@H](NC(=O)[C@H](Cc2c[nH]c3ccccc23)NC(=O)[C@H](CCCNC(=N)N)NC(=O)[C@@H](N)CCCNC(=N)N)CSSC[C@@H](C(=O)N[C@@H](CCCNC(=N)N)C(N)=O)NC(=O)[C@H](CCCCN)NC(=O)[C@H](CCCNC(=N)N)NC(=O)[C@H](Cc2ccc(O)cc2)NC(=O)[C@@H]2CSSC[C@H](NC1=O)C(=O)N[C@@H](Cc1ccc(O)cc1)C(=O)N[C@@H](CCCNC(=N)N)C(=O)NCC(=O)N[C@@H](Cc1ccccc1)C(=O)N2` [Polyphemusin I] (HELM PEPTIDE1{R.R.W.C.F.R.V.C.Y.R.G.F.C.Y.R.K.C.R.[am]}$PEPTIDE1,PEPTIDE1,4:R3-17:R3|PEPTIDE1,PEPTIDE1,8:R3-13:R3$$$V2.0; N-terminus and C-terminus assumed) was tested. Which “Inhibition of IL-6 (%)” value did it give?
A: Its value is 84 ± 3%.
